Reference: PubChem BioAssay (NCI)
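Assay format: 96-well plates, 48-hour exposure. The concentration for 50% growth inhibition is given as GI50. Definition used: TGI = concentration required for complete inhibition of growth.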

Tests used:
Assay in all cases: DTP human tumour cell line panel, 48 h
U251 CNS = test system: U251 CNS
SF-268 CNS = test system: SF-268 CNS
A549 NSCLC = test system: A549 NSCLC
SF-539 CNS = test system: SF-539 CNS
SNB-75 CNS = test system: SNB-75 CNS
MDA-N = test system: MDA-N
OVCAR-3 ovarian = test system: OVCAR-3 ovarian
NCI-H522 lung = test system: NCI-H522 lung
HCT-116 colon = test system: HCT-116 colon

| Compound | TGI (U251 CNS) [µM] | TGI (SF-268 CNS) [µM] | TGI (A549 NSCLC) [µM] | TGI (SF-539 CNS) [µM] | TGI (SNB-75 CNS) [µM] | TGI (MDA-N) [µM] | TGI (OVCAR-3 ovarian) [µM] | TGI (NCI-H522 lung) [µM] | TGI (HCT-116 colon) [µM] | GI50 (OVCAR-3 ovarian) [µM] | GI50 (U251 CNS) [µM] | GI50 (NCI-H522 lung) [µM] | GI50 (SF-268 CNS) [µM] | GI50 (A549 NSCLC) [µM] | GI50 (SF-539 CNS) [µM] | GI50 (SNB-75 CNS) [µM] | GI50 (HCT-116 colon) [µM] |
| --- | --- | --- | --- | --- | --- | --- | --- | --- | --- | --- | --- | --- | --- | --- | --- | --- | --- |
| O=C1N=C2SC(=S)NC(=S)N2NC12c1ccccc1-c1ccccc12 | > 10 | > 10 | > 10 | > 10 | > 10 | > 10 | – | – | – | – | – | – | – | – | – | – | – |
| Nc1nc(Cl)cc(NCC2(O)CC2)n1 | > 100 | > 100 | > 100 | > 100 | > 100 | > 100 | > 100 | > 100 | > 100 | – | – | – | – | – | – | – | – |
| CC[C@H](Nc1nc(C)nc(N)c1C#N)c1nc2cccc(NCc3ccc(C(=O)NO)cc3)c2c(=O)n1-c1ccccc1 | 2.97 | 3.53 | 4.2 | 3.02 | 7.27 | – | 2.96 | 3.65 | 2.5 | 1.48 | 1.48 | 1.54 | 1.63 | 1.92 | 1.59 | 1.73 | 1.01 |
| N#C/C(=C/n1c(=S)[nH]c2ccc([N+](=O)[O-])cc21)C(N)=O | > 100 | > 100 | > 100 | > 100 | > 100 | > 100 | > 100 | – | > 100 | – | – | – | – | – | – | – | – |
| Cc1ccc2c(c1)-c1c(C#N)c(N)nc(-c3ccc(Cl)cc3)c1CCS2(=O)=O | > 100 | > 100 | > 100 | 37.1 | 14.3 | 8.88 | 44.4 | > 23.1 | > 100 | – | – | – | – | – | – | – | – |
| CCC(CO)Nc1nc(NCc2ccccc2)c2ncn(C(C)C)c2n1 (centres undefined) | > 100 | 40.4 | > 100 | 26.4 | 26.8 | > 100 | 37.9 | 55.4 | > 90.2 | – | – | – | – | – | – | – | – |
| c1ccc2c(c1)Sc1nccc3ccnc-2c13 | > 100 | > 100 | – | > 100 | 58.7 | > 100 | > 100 | 97.1 | > 100 | – | – | – | – | – | – | – | – |
| Cc1[nH]c(=O)nc(NCCNCCO)c1C(=O)Nc1cccc2cc3ccccc3cc12 | > 100 | > 100 | > 100 | > 100 | > 100 | > 100 | > 100 | > 100 | > 100 | – | – | – | – | – | – | – | – |
| Cc1cc2c(O)c(c1)CN(CC(=O)O)Cc1cc(C)cc(c1O)CN(CC(=O)O)Cc1cc(C)cc(c1O)CN(CC(=O)O)C2 | > 100 | > 100 | > 100 | > 100 | > 100 | > 100 | > 100 | > 100 | > 100 | – | – | – | – | – | – | – | – |
| C=C1N(C=O)C(C)(C)N(O)C1(C)C | > 100 | > 100 | > 100 | > 100 | > 100 | – | > 100 | – | > 100 | – | – | – | – | – | – | – | – |
| CCP(=O)(OC)C1=CCN(C(=O)OCC[Si](C)(C)C)CC1 (centres undefined) | > 100 | > 100 | > 100 | > 100 | > 100 | > 100 | > 100 | > 100 | – | – | – | – | – | – | – | – | – |
| COc1ccc2nc(/C(N)=C\C#N)ccc2c1 | > 100 | > 100 | > 100 | > 100 | > 100 | > 100 | > 100 | > 100 | > 100 | – | – | – | – | – | – | – | – |
| COc1cc(C(c2c(O)c3ccccc3oc2=O)c2c(O)c3ccccc3oc2=O)cc(Br)c1O | 31.9 | 30 | 35.6 | 33.7 | 39.4 | 36 | 30.9 | 26.8 | 32.7 | – | – | – | – | – | – | – | – |
| CC1=NN(c2nc(N)nc(-c3sccc3N)n2)C(C)(C)C1 | > 100 | > 100 | > 100 | > 100 | > 100 | > 100 | > 100 | > 100 | > 100 | – | – | – | – | – | – | – | – |
| O=c1c(Cc2ccc(Cl)cc2)nnc2sc(-c3ccc(-c4ccc(F)c(Cl)c4)o3)nn12 | > 100 | > 100 | > 100 | > 100 | – | > 100 | – | > 100 | > 100 | – | – | – | – | – | – | – | – |
| Cc1cc(S(=O)(=O)Nc2n[nH]c(-c3ccccn3)n2)c(S)cc1Cl | 67.3 | 88.3 | 41.9 | 54.3 | 85.8 | > 100 | 64.3 | 72.4 | 55.1 | – | – | – | – | – | – | – | – |
| Cc1ccc(C(=O)N/N=C(\N=Nc2ccccc2)c2ccc(N(C)C)cc2)cc1 | > 100 | > 100 | > 100 | > 100 | – | > 100 | > 100 | > 100 | > 100 | – | – | – | – | – | – | – | – |
| Cc1cc(C)c2c(=O)cc(-c3cccc(F)c3)[nH]c2n1 | > 84.1 | > 93.3 | > 100 | 4.54 | > 100 | – | 0.318 | 0.141 | 0.433 | – | – | – | – | – | – | – | – |
| S=C(N/N=C\C(=N/NC(=S)N1CCCCC1)c1ccccc1)N1CCCCC1 | 3.56 | 3.72 | 5.62 | 6.7 | 3.72 | > 100 | 3.68 | 3.77 | 6.53 | – | – | – | – | – | – | – | – |
| CC(C)C(CC(=O)OCC(CO)OC(=O)CC(C(C)C)C(C)C)C(C)C (centres undefined) | 30.9 | 27.6 | 24 | – | 21.8 | 30.1 | 27.2 | 25.6 | 33.4 | – | – | – | – | – | – | – | – |
| C/C(Cl)=N\OC(=O)Nc1ccc(C)cc1 | 29.9 | 32.9 | 35.6 | 35.8 | 26.3 | 29.9 | 34.3 | – | 38.6 | – | – | – | – | – | – | – | – |
| CC(=O)OCC1OC(n2c(-c3ccccc3)c(N=Nc3ccccc3)c(C)c(C#N)c2=S)C(OC(C)=O)C(OC(C)=O)C1OC(C)=O (centres undefined) | > 100 | > 100 | > 100 | > 100 | > 100 | > 100 | > 100 | – | > 100 | – | – | – | – | – | – | – | – |
| COc1cc(-c2n/c(=C\c3c(O)[nH]c4ccc(Cl)cc34)cc3c2=Nc2ccccc2-3)ccc1F | 3.06 | 4.65 | 3.38 | 9.87 | 4.6 | – | 4.06 | – | 3.34 | 1.98 | 1.58 | – | 2.05 | 1.76 | 2.79 | 1.69 | 1.75 |
